From article PMC7145288, “New Peptide-Based Pharmacophore Activates 20S Proteasome” (Molecules, 2020) come the findings set out here.

Square brackets hold non-standard residues; d marks the D form. Peptide text beside a SMILES is read from it. Oic = O=C(O)[C@@H]1C[C@@H]2CCCC[C@@H]2N1; dOic = O=C(O)[C@H]1C[C@H]2CCCC[C@H]2N1; Tic = O=C(O)[C@@H]1Cc2ccccc2CN1

The test system of experiment [1] is 20S core proteasome α face pockets. The experiment can be described thus: Competition with Rpt C-terminal tail peptides for α face pockets (ChT-L activity). In kind it is biochemical, human. The following applies: Rpt peptide 1 μM added before TAT peptide; for Competition with Rpt tail peptides (in words, from radar plot scores): Rpt2 α3/α4, Rpt3 α1/α2, Rpt5 α5/α6, Rpt6 α2/α3 pocket, three to six experiments; for Enhanced (synergistic) activation with Rpt tail peptides (in words): Rpt5 or Rpt6 tails. From the text:
As mentioned above, the binding pockets on the α face accept “anchors” from natural protein ligands of the 20S core. […] The 10-residue Rpt-derived C-terminal “tail” peptides (“Rpt peptides”) can be used as competitors with the Rpt subunits or with small allosteric ligands. Importantly, the Rpt peptides interject between the subunits with their C-termini, whereas TAT peptides, according to the modeling, use their N-termini for this purpose. To test the specificity of interactions between TAT compounds and the α face, we performed competition experiments. The 20S core was challenged with selected TAT compounds after treatment with Rpt peptides. We selected peptides of Rpt2 ([…]), Rpt3 ([…]), Rpt5 ([…]) and Rpt6 […]) subunits, docking in α3/α4, α1/α2, α5/α6 and α2/α3 pockets, respectively. Tails of Rpt2, 3, and 5 display the canonical HbYX motif, whereas the LeuTrpLys C-terminus of Rpt6 may be considered “pseudo-HbYX”, with a bulky Trp replacing Tyr. Results of the competition experiments are presented as radar plots in Figure 7. […] This pocket also emerged as the major binding site for (1) and (8). However, these compounds likely weakly competed with the Rpt2 tail for binding to the α3/α4 pocket as well. The α3/α4 pocket seemed to be favored by (6). […] These complex patterns point at the importance of allosteric effects between the α face ligands, the gate and the catalytic chamber.
Figure 7 TAT1 derivatives competed with selected C-terminal tails of Rpt (Regulatory Particle ATPases) subunits for binding to specific α face pockets. The scores presented in radar plots were calculated as ((relative activation by the [x] and Rpt tail)-(theoretical sum of activation by [x] and Rpt tail))/(theoretical sum of activation by [x] and Rpt tail), where [x] represent any TAT peptide. […] The positive scores for combinations of selected compounds with Rpt5 or Rpt6 tails indicated a presumed synergy in activation of the core. Average scores derived from three to six experiments are presented. The competition effects were statistically significant (at least p < 0.05) for Rpt3 peptide and (1) and (8), as well as for Rpt2 peptide and (6).
Human housekeeping core (20S) proteasome purified from erythrocytes was purchased from Boston Biochem, Inc. (Cambridge, MA) or from Enzo Life Sciences, Inc. (Farmingdale, NY). Multiple batches of the proteasomes were used and performed reproducibly. The stock proteasome was diluted to 0.2 mg/mL working solution in “dilution buffer” (50 mM Tris/HCl, pH 8, 20% glycerol). The following model peptide substrates, all releasing fluorescent 7-amino-4-methylcoumarin (AMC) reporter group after cleavage, were used: succinyl-LeuLeuValTyr-AMC (for the ChT-L peptidase; SucLLVY-AMC; Bachem Bioscience Inc., Philadelphia, PA), butoxycarbonyl-LeuArgArg-AMC (T-L; Bachem Bioscience Inc., Philadelphia, PA) and carbobenzoxy- LeuLeuGlu-AMC (PGPH; Enzo Life Sciences Inc., Farmingdale, NY). The substrates were used at concentration of 50 μM (ChT-L) or 100 μM (T-L, PGPH). Free AMC (Sigma-Aldrich, St. Louis, MO) was used as the standard. The C-terminal peptides derived from Rpt2, Rpt3, Rpt5 and Rpt6 were synthesized (standard solid-phase peptide chemistry) and purified to at least 98% purity by GenScript (Piscataway, NJ). The TAT peptides, Rpt peptides (except Rpt6) and the peptide substrates were dissolved in anhydrous dimethylsulfoxide (DMSO; Sigma-Aldrich, St. Louis, MO) and such stock solutions were stored at −20 °C. The total concentration of DMSO in final reaction mixtures never exceeded 3% (vol/vol). The Trp (tryptophan) -containing Rpt6 peptide was dissolved in ultrapure water and stored at −20 °C, protected from light. […]

Experiment [2] relates to proteasome ChT-L activity in SK-N-SH (ATCC HTB-11) cell lysates. The experiment can be described thus: ChT-L proteasome activity in lysates of treated SK-N-SH cells. Format: cell-based, human. The procedure: […] The content of live cells was determined by the Trypan Blue-exclusion assay. The cells were harvested, washed twice in PBS, resuspended in dilution buffer (see above) and stored in −80 °C. To prepare lysates the thawed preparations were vortexed with glass beads and centrifuged for 5 min 5000× g (4 °C). The supernatant was centrifuged for 20 min 14,000× g (4 °C). The resulting supernatant—“crude lysate” was diluted to 1 mg/mL of total protein with dilution buffer. 1 μg of lysate per assay (reaction buffer: 50 mM Tris/HCl pH 8, 0.1 mM MgCl2, 0.2 mM ATP, 0.1 mM dithiothreitol, 50 μM Suc-LLVY-AMC) was used for determination of ChT-L activity in a 96-well format, as above.

For experiment [3], the target named is T1, human latent 20S core proteasome, chymotrypsin-like (ChT-L) activity (Homo sapiens, UniProt P25787+P60900).
T1 construct: Human housekeeping core (20S) proteasome purified from erythrocytes; purchased Boston Biochem, Inc. or Enzo Life Sciences, Inc; host or cells: human erythrocytes (natural source)
The experiment can be described thus: ChT-L peptidase activity of latent 20S proteasome (Suc-LLVY-AMC). In kind it is biochemical. Conditions: for Max Activation Fold ± SE: purified latent 20S, Tris/HCl pH 8, 50 μM Suc-LLVY-AMC, 37 °C, from fitted response curves, SEM. The procedure: The stock proteasome was diluted to 0.2 mg/mL working solution in “dilution buffer” (50 mM Tris/HCl, pH 8, 20% glycerol). […] The substrates were used at concentration of 50 μM (ChT-L) or 100 μM (T-L, PGPH). […] The total concentration of DMSO in final reaction mixtures never exceeded 3% (vol/vol). […] The reaction was carried out in 96-well plates, in 100 μL of reaction mixture that consisted of 45 mM Tris/HCl, pH 8, 100 mM KCl, 1 mM EDTA (reaction buffer) and a fluorogenic peptide substrate, to which 200 ng (nearly […]) of proteasome were added. […] The proteasome was preincubated with a substrate for 10 min at room temperature, then 1 μL of DMSO or a desired concentration of a TAT peptide in 1 μL of DMSO were added. […] To test the competition with Rpt derived peptides, the Rpt peptide (1 μM) was added before the TAT peptide to the reaction mixture. The reaction rates were calculated from a linear segment of kinetic curves constructed from measurements in 1-min intervals.
A two-tailed t-test was applied to compare the means. The comparisons were allowing for unequal variances with a Welch correction. Abundance of proteasome conformers was compared with the chi squared test and two-sample proportion test. A significance level was set at 0.05. […] Reaction rates were calculated from a smoothed linear segment of kinetic traces using OriginPro 2019. Response curves (activity vs. compound concentration) were fitted with a nonlinear fitting application of OriginPro 2019. The AC50 and maximum activation fold was calculated based on the equations implemented to fit the response curves.

As to `N=C(N)NCCC[C@H](NC(=O)CN)C(=O)N[C@@H](CCCCN)C(=O)N[C@@H](CCCCN)C(=O)N[C@@H](CCCNC(=N)N)C(=O)N[C@@H](CCCNC(=N)N)C(=O)N[C@@H](CCC(N)=O)C(=O)N[C@@H](CCCNC(=N)N)C(=O)N[C@@H](CCCNC(=N)N)C(=O)N[C@@H](CCCNC(=N)N)C(=O)N1CCC[C@H]1C(=O)N[C@@H](CO)C(=O)O` [(1)], in experiment [1], the “Competition with Rpt tail peptides (in words, from radar plot scores)” value (from here on “Competition with Rpt tail peptides”) was “added a weakly negative score for the Rpt2 tail to the presumed major competitor Rpt3” and the “Enhanced (synergistic) activation with Rpt tail peptides (in words)” value (“Enhanced (synergistic) activation” for short) is given as “enhanced activation in the presence of one of Rpt tails, namely Rpt5 or Rpt6”. Further, the “Proteasome ChT-L activity in lysates of treated cells versus control lysates (in words)” value in experiment [2] (SK-N-SH cells, 1 µM peptide, 24 h, 1 μg lysate, 50 μM Suc-LLVY-AMC, n = 3–4) is on record as “lack of significant activation”.

As for `NCCCC[C@H](NC(=O)[C@H](CCCCN)NC(=O)[C@H](CCCCN)NC(=O)[C@@H]1C[C@@H]2CCCC[C@@H]2N1C(=O)[C@@H]1Cc2ccccc2CN1C(=O)[C@H](CCCCN)NC(=O)[C@H](CCCCN)NC(=O)[C@@H](N)CCCCN)C(=O)O` [(6)], in experiment [1], the “Competition with Rpt tail peptides” value was “Rpt2 tail was a major competitor” and the “Enhanced (synergistic) activation” value was “enhanced activation in the presence of one of Rpt tails, namely Rpt5 or Rpt6”.

On to `N=C(N)NCCC[C@H](NC(=O)CN)C(=O)N[C@@H](CCCCN)C(=O)N1Cc2ccccc2C[C@H]1C(=O)N1[C@H](C(=O)N[C@@H](CCCNC(=N)N)C(=O)N[C@@H](CCC(N)=O)C(=O)N[C@@H](CCCNC(=N)N)C(=O)N[C@@H](CCCNC(=N)N)C(=O)N[C@@H](CCCNC(=N)N)C(=O)N2CCC[C@H]2C(=O)N[C@@H](CO)C(=O)O)C[C@@H]2CCCC[C@@H]21` [(3)] (H-GRK[Tic][Oic]RQRRRPS-OH; N-terminus and C-terminus assumed), for which, in experiment [3], the “Max Activation Fold ± SE” value is on record as 3.3 ± 0.23 fold.

Take `N=C(N)NCCC[C@H](NC(=O)CN)C(=O)N[C@@H](CCCCN)C(=O)N1Cc2ccccc2C[C@H]1C(=O)N1[C@H](C(=O)N[C@@H](CCCNC(=N)N)C(=O)N[C@@H](CCC(N)=O)C(=O)N2Cc3ccccc3C[C@H]2C(=O)N2[C@@H](C(=O)N[C@@H](CCCNC(=N)N)C(=O)N3CCC[C@H]3C(=O)N[C@@H](CO)C(=O)O)C[C@H]3CCCC[C@H]32)C[C@@H]2CCCC[C@@H]21` [(2)] (H-GRK[Tic][Oic]RQ[Tic][dOic]RPS-OH; N-terminus and C-terminus assumed): the “Max Activation Fold ± SE” value in experiment [3] was determined as 1.5 ± 0.26 fold. Also, the “Ability to activate ChT-L activity of latent 20S (in words)” value in experiment [3] (titration, latent human 20S, Suc-LLVY-AMC, n = 3–8) is recorded as “very poor activator”. In experiment [1], the “Competition with Rpt tail peptides” value is “competing with Rpt2, Rpt3, and Rpt5 tails”; the “Enhanced (synergistic) activation” value is reported as “synergy was especially pronounced for the Rpt6-(2) pair”.

Regarding `CC(C)C[C@H](NC(=O)[C@H](Cc1ccccc1)NC(=O)c1cnccn1)B(O)O` [bortezomib, reference compound], in experiment [2] (1 µM bortezomib added to lysates from control and TAT-exposed SK-N-SH cells), the “Abolition of ChT-L activity in cell lysates” value is on record as more than 85%.
